Test results from the NIST ThermoML archive (doi:10.1016/j.fluid.2014.05.034).
Numbers after ± are expanded uncertainties.

Tests used:
[1] = for Normal melting temperature: Crystal; for mass density: 101.33 kPa, Liquid, Vibrating tube method
[2] = Molar enthalpy of transition or fusion; conditions: Crystal; DSC

| SMILES | Normal melting temperature ([1]; visual observation) [°C] | also measured |
| --- | --- | --- |
| CCCCCC[n+]1ccc2ccccc2c1.O=S(=O)([N-]S(=O)(=O)C(F)(F)F)C(F)(F)F [N-hexylisoquinolinium bis(trifluoromethylsulfonyl)imide] | 55.2 ± 1.1 |  |
| CCCCn1cc[n+](C)c1.N#CC1=NC(C(F)(F)F)=NC1=C=[N-] |  | mass density ([1]; 298.15 K): 1199.65 ± 5 kg/m3 |
| CC[N+]1(C)CCCCC1.O=S(=O)([N-]S(=O)(=O)C(F)(F)F)C(F)(F)F | 82.8 ± 1.1 |  |
| C[n+]1ccn(CC#N)c1.N#Cc1nc(C(F)(F)F)[n-]c1C#N | 93.0 ± 1.1 | Normal melting temperature ([1]; DTA): 92.7 ± 0.5 °C; Molar enthalpy of transition or fusion [2]: 7.36 ± 0.213 kcal/mol |
| CCCCCC[n+]1cccc2ccccc21.O=S(=O)([N-]S(=O)(=O)C(F)(F)F)C(F)(F)F [1-hexylquinolinium bis(trifluoromethylsulfonyl)amide] | 45 ± 1.1 |  |
| OCCc1ccccc1 [2-phenylethanol] |  | mass density ([1]; 293.15 K): 1019 ± 1 kg/m3 |
